Experimental data taken from patent publication US20240360157A1, “TYK2 INHIBITORS” (BIOGEN MA INC., priority 2021, published 2024).

How the values were obtained:
Format in all cases: biochemical
[1] = biological target: human JAK3 catalytic kinase (JH1) domain (Homo sapiens (Human), UniProt P52333); test: ADP-Glo Kinase Assay, recombinant JAK3 catalytic kinase (JH1) domain; settings: recombinant JH1 domain 0.3 nM, 4 μM ATP, JAK3-974 peptide, mean, read-out: JAK3 biochem IC50 (nM) Mean
In short: (§1)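 ADP-Glo luminescence with 50 μM peptide and 100 min reactions: JAK1 4 nM with JAK3-342 peptide; JAK2, JAK3 and TYK2 at 0.2, 0.3 and 2 nM with JAK3-974 peptide. Compounds tested from 10 or 1 μM top, 11 points, 3-fold. IC50 from a 4-parameter logistic fit of normalized activity.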

[2] = biological target: human JAK1 catalytic kinase (JH1) domain (Homo sapiens (Human), UniProt P23458); test: ADP-Glo Kinase Assay, recombinant JAK1 catalytic kinase (JH1) domain; settings: recombinant JH1 domain 4 nM, 35 μM ATP, JAK3-342 peptide, mean, read-out: JAK1 biochem IC50 (nM) Mean
In short: as §1

[3] = biological target: human TYK2 catalytic kinase (JH1) domain (Homo sapiens (Human), UniProt P29597); test: ADP-Glo Kinase Assay, recombinant TYK2 catalytic kinase (JH1) domain; settings: recombinant JH1 domain 2 nM, 10 μM ATP, JAK3-974 peptide, mean, read-out: TYK2 biochem IC50 (nM) Mean
In short: as §1

[4] = biological target: human JAK2 catalytic kinase (JH1) domain (Homo sapiens (Human), UniProt O60674); test: ADP-Glo Kinase Assay, recombinant JAK2 catalytic kinase (JH1) domain; settings: recombinant JH1 domain 0.2 nM, 15 μM ATP, JAK3-974 peptide, mean, read-out: JAK2 biochem IC50 (nM) Mean
In short: as §1

human JAK2 catalytic kinase (JH1) domain, sequence (O60674 849-1124): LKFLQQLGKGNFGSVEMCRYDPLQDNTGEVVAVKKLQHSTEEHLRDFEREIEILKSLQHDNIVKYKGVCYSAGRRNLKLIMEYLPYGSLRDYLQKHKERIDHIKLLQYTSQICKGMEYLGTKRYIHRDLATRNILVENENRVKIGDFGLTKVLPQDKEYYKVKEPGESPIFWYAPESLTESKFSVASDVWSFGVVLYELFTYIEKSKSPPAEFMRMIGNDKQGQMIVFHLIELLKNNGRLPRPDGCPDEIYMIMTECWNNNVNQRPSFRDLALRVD
human JAK3 catalytic kinase (JH1) domain, sequence (P52333 822-1111): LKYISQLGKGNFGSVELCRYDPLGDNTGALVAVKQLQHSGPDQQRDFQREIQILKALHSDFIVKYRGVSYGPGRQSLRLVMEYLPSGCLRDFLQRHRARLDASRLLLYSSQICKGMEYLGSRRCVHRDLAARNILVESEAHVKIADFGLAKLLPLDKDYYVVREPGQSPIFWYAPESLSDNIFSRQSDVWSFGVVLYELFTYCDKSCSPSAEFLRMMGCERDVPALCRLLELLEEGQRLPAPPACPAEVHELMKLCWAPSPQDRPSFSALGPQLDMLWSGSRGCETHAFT
human JAK1 catalytic kinase (JH1) domain, sequence (P23458 875-1153): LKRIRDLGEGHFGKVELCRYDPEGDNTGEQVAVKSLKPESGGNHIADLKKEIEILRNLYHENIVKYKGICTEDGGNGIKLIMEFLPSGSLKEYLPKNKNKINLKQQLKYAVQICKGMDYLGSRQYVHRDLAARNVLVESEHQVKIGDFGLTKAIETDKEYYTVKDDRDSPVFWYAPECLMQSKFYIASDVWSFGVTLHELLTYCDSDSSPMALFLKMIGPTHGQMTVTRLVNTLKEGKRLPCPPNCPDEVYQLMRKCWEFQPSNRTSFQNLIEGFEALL
human TYK2 catalytic kinase (JH1) domain, sequence (P29597 897-1176): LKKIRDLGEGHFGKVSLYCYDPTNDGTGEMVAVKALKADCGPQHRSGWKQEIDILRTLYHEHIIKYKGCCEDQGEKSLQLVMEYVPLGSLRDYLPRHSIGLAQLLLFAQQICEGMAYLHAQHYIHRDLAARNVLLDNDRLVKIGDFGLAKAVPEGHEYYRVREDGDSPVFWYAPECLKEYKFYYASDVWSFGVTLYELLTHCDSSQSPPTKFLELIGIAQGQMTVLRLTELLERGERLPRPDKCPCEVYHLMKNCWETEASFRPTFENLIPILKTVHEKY

Q: Which IC50 [1] does the source give for `CNc1nccc(-c2cc3c(N4CC5CCC(C4)N5C(=O)[C@@H]4C[C@H]4F)ccnn3c2)n1` [Example 126, ((1S,2R)-2-fluorocyclopropyl)(3-(6-(2-(methylamino)pyrimidin-4-yl)pyrrolo[1,2-b]pyridazin-4-yl)-3,8-diazabicyclo[3.2.1]octan-8-yl)methanone] here?
A: Its IC50 is 1460 nM.

Q: What about the IC50 [2] of the same compound?
A: The IC50 was 54 nM.

Q: What about the IC50 [3] of the same compound?
A: Its IC50 is 8.8 nM.

Q: What about the IC50 [4] of the same compound?
A: Its IC50 is 98 nM.

Q: `O=C(N1C2CCC1CN(c1ncnn3cc(-c4cnn(C(F)F)c4)cc13)C2)C1(F)CC1` [Example 50, (3-(6-(1-(difluoromethyl)-1H-pyrazol-4-yl)pyrrolo[2,1-f][1,2,4]triazin-4-yl)-3,8-diazabicyclo[3.2.1]octan-8-yl)(1-fluorocyclopropyl)methanone] was tested. Which IC50 [1] did it give?
A: The IC50 was 2020 nM.

Q: What about the IC50 [2] of the same compound?
A: Its IC50 is 1040 nM.

Q: What about the IC50 [3] of the same compound?
A: Its IC50 is 295 nM.

Q: What about the IC50 [4] of the same compound?
A: The IC50 was 6150 nM.

Q: With `N#CC1CC1c1nc2c(N3CC4CCC(C3)N4C(=O)[C@@H]3C[C@H]3F)ccnc2[nH]1` (stereo partly drawn) [Example 215, 2-(7-(8-((1S,2R)-2-fluorocyclopropane-1-carbonyl)-3,8-diazabicyclo[3.2.1]octan-3-yl)-3H-imidazo[4,5-b]pyridin-2-yl)cyclopropane-1-carbonitrile] as the compound, how does the IC50 [1] read?
A: Its IC50 is 10000 nM.

Q: And the IC50 [2]?
A: The IC50 was 2180 nM.

Q: What about the IC50 [3] of the same compound?
A: Its IC50 is 484 nM.

Q: What about the IC50 [4] of the same compound?
A: Its IC50 is 5350 nM.

Q: Which IC50 [1] does the source give for `O=C([C@@H]1C[C@H]1F)N1C2CCC1CN(c1ncnc3[nH]c(-c4ccnc(C(F)(F)F)c4)cc13)C2` [Example 223, ((1S,2R)-2-fluorocyclopropyl)(3-(6-(2-(trifluoromethyl)pyridin-4-yl)-7H-pyrrolo[2,3-d]pyrimidin-4-yl)-3,8-diazabicyclo[3.2.1]octan-8-yl)methanone] here?
A: Its IC50 is 1620 nM.

Q: What about the IC50 [2] of the same compound?
A: The IC50 was 308 nM.

Q: And the IC50 [3]?
A: Its IC50 is 23.9 nM.

Q: And the IC50 [4]?
A: The IC50 was 352 nM.

Q: For `Cc1cc(-c2cc3c(N4CC5CCC(C4)N5C(=O)[C@@H]4C[C@H]4F)ncnn3c2)on1` [Example 166], which IC50 [1] is on record?
A: Its IC50 is 9260 nM.

Q: What about the IC50 [2] of the same compound?
A: Its IC50 is 1160 nM.

Q: And the IC50 [3]?
A: Its IC50 is 56 nM.

Q: What about the IC50 [4] of the same compound?
A: The IC50 was 1050 nM.

Q: Which results are given for `O=C([C@H]1C[C@@H]1CO)N1C2CCC1CN(c1ncnn3cc(-c4cnn(C(F)F)c4)cc13)C2` (single isomer, unassigned) [Example 39]?
A: IC50 [1]: 6380 nM; IC50 [2]: 2130 nM; IC50 [3]: 762 nM; IC50 [4]: 9090 nM

Q: `O=C(C1CC1)N1C2CCC1CN(c1ncnn3cc(-c4cnn(CF)c4)cc13)C2` [Example 155] was tested. Which IC50 [1] did it give?
A: The IC50 was 4000 nM.

Q: What about the IC50 [2] of the same compound?
A: The IC50 was 1810 nM.

Q: What about the IC50 [3] of the same compound?
A: Its IC50 is 293 nM.

Q: And the IC50 [4]?
A: Its IC50 is 5180 nM.

Q: With `CNc1ccc(-c2cc3c(N4CC5CCC(C4)N5C(=O)[C@@H]4C[C@H]4F)ccnn3c2)cn1` [Example 129, ((1S,2R)-2-fluorocyclopropyl)(3-(6-(6-(methylamino)pyridin-3-yl)pyrrolo[1,2-b]pyridazin-4-yl)-3,8-diazabicyclo[3.2.1]octan-8-yl)methanone] as the compound, how does the IC50 [1] read?
A: Its IC50 is 658 nM.

Q: What about the IC50 [2] of the same compound?
A: Its IC50 is 69 nM.

Q: What about the IC50 [3] of the same compound?
A: Its IC50 is 3.8 nM.

Q: And the IC50 [4]?
A: Its IC50 is 73 nM.

Q: `O=C([C@@H]1C[C@H]1F)N1C2CCC1CN(c1ccnn3cc(-c4ccnc(C(F)(F)F)c4)cc13)C2` [Example 112, ((1S,2R)-2-fluorocyclopropyl)(3-(6-(2-(trifluoromethyl)pyridin-4-yl)pyrrolo[1,2-b]pyridazin-4-yl)-3,8-diazabicyclo[3.2.1]octan-8-yl)methanone] was tested. Which IC50 [1] did it give?
A: Its IC50 is 835 nM.

Q: What about the IC50 [2] of the same compound?
A: The IC50 was 37 nM.

Q: And the IC50 [3]?
A: The IC50 was 2.9 nM.

Q: And the IC50 [4]?
A: Its IC50 is 38 nM.

Q: Which IC50 [1] does the source give for `O=C([C@@H]1C[C@H]1F)N1C2CCC1CN(c1ccnn3cc(-c4ccc(C(F)F)nc4)cc13)C2` [Example 116, (3-(6-(6-(difluoromethyl)pyridin-3-yl)pyrrolo[1,2-b]pyridazin-4-yl)-3,8-diazabicyclo[3.2.1]octan-8-yl)((1S,2R)-2-fluorocyclopropyl)methanone] here?
A: The IC50 was 847 nM.

Q: And the IC50 [2]?
A: Its IC50 is 44 nM.

Q: And the IC50 [3]?
A: Its IC50 is 2.6 nM.

Q: And the IC50 [4]?
A: The IC50 was 41 nM.

Q: Which IC50 [1] does the source give for `O=C([C@@H]1CC1(F)F)N1C2CCC1CN(c1ncnn3cc(-c4cnn(C(F)F)c4)cc13)C2` [Example 3, ((S)-2,2-difluorocyclopropyl)(3-(6-(1-(difluoromethyl)-1H-pyrazol-4-yl)pyrrolo[2,1-f][1,2,4]triazin-4-yl)-3,8-diazabicyclo[3.2.1]octan-8-yl)methanone] here?
A: Its IC50 is 6160 nM.

Q: What about the IC50 [2] of the same compound?
A: The IC50 was 653 nM.

Q: And the IC50 [3]?
A: The IC50 was 27.8 nM.

Q: What about the IC50 [4] of the same compound?
A: The IC50 was 714 nM.

Q: Which results are given for `O=C([C@@H]1C[C@H]1F)N1C2CCC1CN(c1ncnn3cc(-c4ccnnc4)cc13)C2` [Example 90, ((1S,2R)-2-fluorocyclopropyl)(3-(6-(pyridazin-4-yl)pyrrolo[2,1-f][1,2,4]triazin-4-yl)-3,8-diazabicyclo[3.2.1]octan-8-yl)methanone]?
A: IC50 [1]: 10000 nM; IC50 [2]: 1120 nM; IC50 [3]: 124 nM; IC50 [4]: 3060 nM

Q: What does the source list for `O=C(C1CC1)N1C2CCC1CN(c1ncnn3cc(-c4cnn(C(F)F)c4)cc13)C2` [Example 150]?
A: IC50 [1]: 5620 nM; IC50 [2]: 1850 nM; IC50 [3]: 190 nM; IC50 [4]: 3370 nM

Q: `O=C(C1CC1)N1C2CCC1CN(c1ccnn3cc(-c4cnn(C(F)(F)F)c4)cc13)C2` [Example 20, cyclopropyl(3-(6-(1-(trifluoromethyl)-1H-pyrazol-4-yl)pyrrolo[1,2-b]pyridazin-4-yl)-3,8-diazabicyclo[3.2.1]octan-8-yl)methanone] was tested. Which IC50 [1] did it give?
A: Its IC50 is 1860 nM.

Q: And the IC50 [2]?
A: Its IC50 is 356 nM.

Q: What about the IC50 [3] of the same compound?
A: The IC50 was 30.2 nM.

Q: What about the IC50 [4] of the same compound?
A: Its IC50 is 532 nM.

Q: How did the IC50 [1] turn out when `Cn1cc(-c2cc3nccc(N4CC5CCC(C4)N5C(=O)[C@@H]4C[C@H]4F)n3n2)cn1` [Example 251, ((1S,2R)-2-fluorocyclopropyl)(3-(2-(1-methyl-1H-pyrazol-4-yl)pyrazolo[1,5-a]pyrimidin-7-yl)-3,8-diazabicyclo[3.2.1]octan-8-yl)methanone] was run?
A: The IC50 was 2920 nM.

Q: What about the IC50 [2] of the same compound?
A: The IC50 was 322 nM.

Q: And the IC50 [3]?
A: Its IC50 is 81 nM.

Q: What about the IC50 [4] of the same compound?
A: Its IC50 is 472 nM.

Q: With `Cc1c(-c2cnn(C)c2)[nH]c2nccc(N3CC4CCC(C3)N4C(=O)[C@@H]3C[C@H]3F)c12` [Example 249, ((1S,2R)-2-fluorocyclopropyl)(3-(3-methyl-2-(1-methyl-1H-pyrazol-4-yl)-1H-pyrrolo[2,3-b]pyridin-4-yl)-3,8-diazabicyclo[3.2.1]octan-8-yl)methanone] as the compound, how does the IC50 [1] read?
A: The IC50 was 2810 nM.

Q: What about the IC50 [2] of the same compound?
A: Its IC50 is 1240 nM.

Q: And the IC50 [3]?
A: Its IC50 is 19 nM.

Q: And the IC50 [4]?
A: The IC50 was 251 nM.

Q: What does the source list for `O=C(C1CC1)N1C2CCC1CN(c1ncnn3cc(-c4cnn(C(F)F)c4)cc13)C2` [Example 144]?
A: IC50 [1]: 10000 nM; IC50 [2]: 9320 nM; IC50 [3]: 622 nM; IC50 [4]: 10000 nM

Q: Which results are given for `Cn1cc(-c2cc3c(N4CC5CCC(C4)N5C(=O)[C@@H]4C[C@H]4F)ncnn3c2)ccc1=O` [Example 165]?
A: IC50 [1]: 4140 nM; IC50 [2]: 478 nM; IC50 [3]: 40.3 nM; IC50 [4]: 902 nM
